Experimental data reported in ChEMBL document CHEMBL1126508, “Quinazolinones 1: design and synthesis of potent quinazolinone- containing AT1-selective angiotensin-II receptor antagonists” (Bioorg Med Chem Lett, 1993).

Tests used:
[1] = molecular target: T1, Type-1 angiotensin II receptor (Oryctolagus cuniculus, UniProt P34976); assay: Binding affinity against Angiotensin II type 1 Receptor in rabbit aortic tissue; assay type: tissue-based, Aorta
T1 sequence (P34976 whole entry): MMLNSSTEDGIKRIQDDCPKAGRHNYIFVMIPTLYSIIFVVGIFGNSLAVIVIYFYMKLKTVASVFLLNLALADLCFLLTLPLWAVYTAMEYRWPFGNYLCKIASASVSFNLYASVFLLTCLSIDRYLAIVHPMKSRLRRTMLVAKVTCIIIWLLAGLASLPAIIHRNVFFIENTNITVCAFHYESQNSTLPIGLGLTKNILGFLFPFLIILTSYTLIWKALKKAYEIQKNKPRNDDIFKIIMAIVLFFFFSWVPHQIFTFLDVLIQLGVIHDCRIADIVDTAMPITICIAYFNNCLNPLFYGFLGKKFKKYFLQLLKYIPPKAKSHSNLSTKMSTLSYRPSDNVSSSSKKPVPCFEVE

[2] = Tested for Lipophilicity of the compound; assay type: physicochemical; conditions: octanol/water
[3] = molecular target: T1, Type-1 angiotensin II receptor; assay: Ability to displace [125I]Sar1-Ile8-AII from Angiotensin II receptor, type 1 in rabbit aorta in presence of 0.2% bovine serum albumin (BSA) was determined in vitro; assay type: tissue-based

| Compound | IC50 [1] | Lipophilicity [2] | IC50 [3] |
| --- | --- | --- | --- |
| CCCCc1nc2cc(C)ccc2c(=O)n1Cc1ccc(-c2ccccc2C(=O)O)cc1 | 370 nM | – | – |
| CCCCc1nc2ccc([N+](=O)[O-])cc2c(=O)n1Cc1ccc(-c2ccccc2-c2nn[nH]n2)cc1 | 28 nM | -0.28 | – |
| CCCCc1nc2c(C)cccc2c(=O)n1Cc1ccc(-c2ccccc2C(=O)O)cc1 | 1400 nM | – | – |
| CCCCc1nc2ccc(C(F)(F)F)cc2c(=O)n1Cc1ccc(-c2ccccc2-c2nn[nH]n2)cc1 | – | 0.88 | 12 nM |
| CCCCc1nc2cccc(C)c2c(=O)n1Cc1ccc(-c2ccccc2C(=O)O)cc1 | 370 nM | – | – |
| CCCCc1nc2ccccc2c(=O)n1Cc1ccc(-c2ccccc2C(=O)O)cc1 | 200 nM | – | – |
| CCCCc1nc2cc3ccccc3cc2c(=O)n1Cc1ccc(-c2ccccc2C(=O)O)cc1 | 380 nM | – | – |
| CCCCc1nc2ccc(C)cc2c(=O)n1Cc1ccc(-c2ccccc2C(=O)O)cc1 | 92 nM | – | – |
| CCCCc1nc2ccc(I)cc2c(=O)n1Cc1ccc(-c2ccccc2-c2nnn[nH]2)cc1 | – | 1.12 | 12 nM |
| CCc1nc2ccc(C)cc2c(=O)n1Cc1ccc(-c2ccccc2-c2nn[nH]n2)cc1 | > 100 nM | – | – |
| CCCCc1nc2ccc(Cl)cc2c(=O)n1Cc1ccc(-c2ccccc2-c2nn[nH]n2)cc1 | 29 nM | 0.71 | – |

Continued by falling IC50 [1], values first:

| IC50 [1] | Lipophilicity [2] | IC50 [3] | Compound |
| --- | --- | --- | --- |
| 26 nM | 0.14 | – | CCCCc1nc2ccc(F)cc2c(=O)n1Cc1ccc(-c2ccccc2-c2nn[nH]n2)cc1 |
| 15 nM | – | – | CCCCc1nc2cc(Cl)ccc2c(=O)n1Cc1ccc(-c2ccccc2-c2nn[nH]n2)cc1 |
| 13 nM | – | – | CCCCc1nc2cc(OC)c(OC)cc2c(=O)n1Cc1ccc(-c2ccccc2-c2nnn[nH]2)cc1 |
| 10 nM | – | – | CCCc1nc2ccc(C)cc2c(=O)n1Cc1ccc(-c2ccccc2-c2nn[nH]n2)cc1 |
| 10 nM | 0 | – | CCCCc1nc2ccccc2c(=O)n1Cc1ccc(-c2ccccc2-c2nn[nH]n2)cc1 |
| 10 nM | – | – | CCCCc1nc2cccc(F)c2c(=O)n1Cc1ccc(-c2ccccc2-c2nn[nH]n2)cc1 |
| 9 nM | -0.97 | – | CCCCc1nc2ccc(NC(C)=O)cc2c(=O)n1Cc1ccc(-c2ccccc2-c2nnn[nH]2)cc1 |
| 6.4 nM | – | – | CCCCCc1nc2ccc(C)cc2c(=O)n1Cc1ccc(-c2ccccc2-c2nnn[nH]2)cc1 |
| 5 nM | -0.02 | – | CCCCc1nc2ccc(OC)cc2c(=O)n1Cc1ccc(-c2ccccc2-c2nnn[nH]2)cc1 |
| 4 nM | 0.56 | – | CCCCc1nc2ccc(C)cc2c(=O)n1Cc1ccc(-c2ccccc2-c2nnn[nH]2)cc1 |
| 2 nM | – | – | CCCCC(=O)Nc1ccc2nc(CCCC)n(Cc3ccc(-c4ccccc4-c4nnn[nH]4)cc3)c(=O)c2c1 |
| 1.3 nM | -1.23 | – | CCCCc1nc2ccc(N)cc2c(=O)n1Cc1ccc(-c2ccccc2-c2nnn[nH]2)cc1 |
